According to US20090215713A1, “Use of atp for the manufacture of a medicament for the prevention and treatment of oxidative stress and related conditions” (priority 2004, published 2009):
“Also recorded” adds a separate entry of the source.

What was measured:
TNFα = TNFα secretion in whole blood after γ-irradiation; assay type: cell-based; conditions: 300 μM ATP, 16 Gy, 3 and 5 h post-irradiation
Experimental: FIG. 18 Effect of ATP on cytokine secretion in whole blood after γ-irradiation. Blood was pre-incubated with 300 μM ATP or medium (control) for 30 minutes and then irradiated with γ-radiation (16 Gy).
Samples with 5 ml of blood were pre-incubated with 300 μM ATP or medium (control) for 30 minutes. Then, at t=0, each blood sample was irradiated with γ-radiation at a dose of 16 Gy. Preceding irradiation (baseline) and at 1 h, 3 h and 5 h post-irradiation, a sample was taken for analysis of intracellular GSH and GSH/GSSG ratios according to standard methods, as well as for cytokine analysis by the ELISA method.

IL-6 = assay: LPS+PHA-induced IL-6 secretion in whole blood from healthy subjects (ELISA); assay type: cell-based, human; conditions: indicated ATP concentrations, 24 h
Experimental: FIG. 9 Effect of ATP on LPS+PHA-induced IL-6 secretion in whole blood from healthy subjects. The whole blood was exposed to 10 μg/ml LPS and 1 μg/ml PHA with indicated concentrations of ATP for 24 h. The IL-6 released into the supernatants was analyzed using the ELISA method. Results are expressed in percentage, 100% being the IL-6 release under stimulation by LPS+PHA without ATP. […] Data are expressed at the mean values; error bars represent SEM.
Blood was collected from 8 healthy subjects in heparin containing vacutainer tubes. All incubations were performed in duplicate. ATP was dissolved in RPMI 1640 culture medium, at a final concentration of 1-300 μM, and blood pre-incubated with ATP at 5% CO2 at 37 DC for 30 min. After stimulation with LPS en PHA (10 and 1 μg/ml final concentration, respectively), the plates were incubated in 5% CO2 at 37° C. for 24 h. Cell-free supernatant fluids were then collected by centrifugation (6000 rpm, 10 min at 4° C.) and stored at −20° C. until tested for presence of cytokines. All cytokines were quantified by means of PeliKine Compact human ELISA kits (CLB/Sanquin, The Netherlands), based on appropriate and validated sets of monoclonal antibodies.

With `Nc1ncnc2c1ncn2[C@@H]1O[C@H](COP(=O)(O)OP(=O)(O)OP(=O)(O)O)[C@@H](O)[C@H]1O` [ATP, Adenosine 5′-triphosphate] the “effect on irradiation-induced TNFα stimulation” value (TNFα) was “completely blocked” and the “effect on LPS+PHA-induced IL-6 release” value (IL-6) was “No effect; also recorded: not influenced”.
